Laboratory results taken from paper PMC5626944 (Frontiers in Pharmacology, 2017).

Tests used:
[1] = test system: Leukotriene, LTB4 (BLT); assay: NovaScreen competition binding; conditions: 1 µM
[2] = test system: T1, Adenosine, A2A (h); assay: NovaScreen competition binding; parameters: species or system human; conditions: 1 µM
T1 construct: PerkinElmer – Caliper Life Sciences (NovaScreen service)

[3] = test system: Opioid, Delta 2 (h); assay: NovaScreen competition binding; parameters: species or system human; conditions: 1 µM
[4] = test system: T2, Kinase, Protein, PKA (h); assay: NovaScreen enzyme assay; type: biochemical, human; conditions: 1 µM
T2 construct: PerkinElmer – Caliper Life Sciences (NovaScreen service)

[5] = test system: Dopamine, D4.4 (h); assay: NovaScreen competition binding; parameters: species or system human; conditions: 1 µM
[6] = test system: Potassium Channel, Ca2+ Act., VI; assay: NovaScreen competition binding; conditions: 1 µM
[7] = test system: hERG potassium channel (IKr); assay: NovaScreen competition binding; parameters: species or system human; conditions: human, probe [3H]Astemizole, [3H]Astemizole
[8] = test system: Potassium Channel, I[Kr] (hERG) (h); assay: NovaScreen competition binding; parameters: species or system human; conditions: 1 µM
[9] = test system: Sigma 1; assay: NovaScreen competition binding; conditions: 1 µM
[10] = test system: GABA, Chloride, TBOB Site; assay: NovaScreen competition binding; conditions: 1 µM
[11] = test system: GABA A, Agonist Site; assay: NovaScreen competition binding; conditions: 1 µM
[12] = test system: T3, Histamine, H1; assay: NovaScreen competition binding; conditions: 1 µM
T3 construct: PerkinElmer – Caliper Life Sciences (NovaScreen)

[13] = test system: T4, Histamine, H2; assay: NovaScreen competition binding; conditions: 1 µM
T4 construct: PerkinElmer – Caliper Life Sciences (NovaScreen)

[14] = test system: Dopamine Transporter; assay: NovaScreen competition binding; conditions: 1 µM
[15] = target: Glutamate,NMDA,Glycine (Stry-insens Site) (Ionot (Rattus norvegicus, UniProt P35439)); assay: NovaScreen competition binding
[16] = target: α4β2* nAChRs (Mus musculus, UniProt O70174+Q9ERK7); assay: [125I]epibatidine binding, cortical membranes; parameters: from tissue; host or cells: cortical brain membranes (mouse)
Procedure: Brain membrane preparations were stored as pellets under buffer at -70°C or used immediately.

[17] = test system: Histamine, H3; assay: NovaScreen competition binding; conditions: 1 µM
[18] = test system: Glycine, Strychnine-sensitive; assay: NovaScreen competition binding; conditions: 1 µM
[19] = test system: T5, GABA A, BDZ, alpha 1 site; assay: NovaScreen competition binding; conditions: 1 µM
T5 construct: PerkinElmer – Caliper Life Sciences (NovaScreen)

[20] = test system: Dopamine, D2s (h); assay: NovaScreen competition binding; parameters: species or system human; conditions: 1 µM
[21] = test system: T6, Thromboxane A2 (h) [SQ 29,548]; assay: NovaScreen competition binding; parameters: species or system human; conditions: 1 µM
T6 construct: PerkinElmer – Caliper Life Sciences (NovaScreen service)

[22] = test system: Glutamate, AMPA Site (Ionotropic); assay: NovaScreen competition binding; conditions: 1 µM
[23] = test system: Sodium, Site 2; assay: NovaScreen competition binding; conditions: 1 µM
[24] = test system: T7, Kinase, Protein, PKCa (h); assay: NovaScreen enzyme assay; type: biochemical, human; conditions: 1 µM
T7 construct: PerkinElmer – Caliper Life Sciences (NovaScreen service)

[25] = test system: T8, Adenosine Transporter (h); assay: NovaScreen competition binding; parameters: species or system human; conditions: 1 µM
T8 construct: PerkinElmer – Caliper Life Sciences (NovaScreen service)

[26] = test system: Serotonin Transporter; assay: NovaScreen competition binding; conditions: 1 µM
[27] = test system: Calcium Channel, Type N; assay: NovaScreen competition binding; conditions: 1 µM
[28] = target: T9, α3β4* nAChRs (Mus musculus, UniProt Q8R493+Q8R4G9); assay: [3H]ACh release from interpeduncular nucleus synaptosomes; type: biochemical; conditions: IPN synaptosomes
T9 construct: from tissue
Procedure: Regions of interest were dissected from fresh mouse brains and homogenized in ice-cold isotonic sucrose (0.32 M), buffered with HEPES (5 mM, pH 7.5). The suspension was centrifuged at 12,000 × g for 20 min. The pellet was re-suspended in the appropriate uptake buffer ([Grady et al., 2001]; [Salminen et al., 2004]; [Marks et al., 2006]) and used immediately.
Previously published methods for [^3H]ACh release from crude IPN synaptosomes were followed ([Grady et al., 2001]). Agonist-stimulated ^86Rb^+ efflux from synaptosomes was measured using previously described methods ([Marks et al., 1999], [2007]).

[29] = test system: T10, Neuropeptide, NPY2 (h); assay: NovaScreen competition binding; parameters: species or system human; conditions: 1 µM
T10 construct: PerkinElmer – Caliper Life Sciences (NovaScreen service)

[30] = test system: T11, Angiotensin II, AT1 (h); assay: NovaScreen competition binding; parameters: species or system human; conditions: 1 µM
T11 construct: PerkinElmer – Caliper Life Sciences (NovaScreen service)

[31] = test system: Serotonin, 5HT5A (h); assay: NovaScreen competition binding; parameters: species or system human; conditions: 1 µM
[32] = test system: Adrenergic, Beta 2 (h); assay: NovaScreen competition binding; parameters: species or system human; conditions: 1 µM
[33] = test system: T12, Leukotriene, LTD4 (CysLT1); assay: NovaScreen competition binding; conditions: 1 µM
T12 construct: PerkinElmer – Caliper Life Sciences (NovaScreen service)

[34] = In vitro metabolism in microsomes; type: in vitro ADME; conditions: rat microsomes
[35] = substrate Fluorescein-labeled peptide

T9 sequence (Q8R4G9 26-499): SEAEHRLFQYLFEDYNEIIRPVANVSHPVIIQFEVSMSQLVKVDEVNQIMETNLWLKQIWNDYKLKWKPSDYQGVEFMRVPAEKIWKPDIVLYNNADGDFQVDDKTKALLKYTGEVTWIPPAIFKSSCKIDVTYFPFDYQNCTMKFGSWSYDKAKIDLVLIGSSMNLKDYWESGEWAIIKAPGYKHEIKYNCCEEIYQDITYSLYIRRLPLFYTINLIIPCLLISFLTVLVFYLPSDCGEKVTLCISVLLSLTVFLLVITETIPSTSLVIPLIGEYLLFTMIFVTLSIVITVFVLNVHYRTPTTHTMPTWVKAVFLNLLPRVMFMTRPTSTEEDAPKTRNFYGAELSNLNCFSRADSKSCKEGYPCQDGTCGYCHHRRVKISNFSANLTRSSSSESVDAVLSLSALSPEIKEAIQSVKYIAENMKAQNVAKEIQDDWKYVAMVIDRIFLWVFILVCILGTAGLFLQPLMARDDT
T9 sequence (Q8R493 21-495): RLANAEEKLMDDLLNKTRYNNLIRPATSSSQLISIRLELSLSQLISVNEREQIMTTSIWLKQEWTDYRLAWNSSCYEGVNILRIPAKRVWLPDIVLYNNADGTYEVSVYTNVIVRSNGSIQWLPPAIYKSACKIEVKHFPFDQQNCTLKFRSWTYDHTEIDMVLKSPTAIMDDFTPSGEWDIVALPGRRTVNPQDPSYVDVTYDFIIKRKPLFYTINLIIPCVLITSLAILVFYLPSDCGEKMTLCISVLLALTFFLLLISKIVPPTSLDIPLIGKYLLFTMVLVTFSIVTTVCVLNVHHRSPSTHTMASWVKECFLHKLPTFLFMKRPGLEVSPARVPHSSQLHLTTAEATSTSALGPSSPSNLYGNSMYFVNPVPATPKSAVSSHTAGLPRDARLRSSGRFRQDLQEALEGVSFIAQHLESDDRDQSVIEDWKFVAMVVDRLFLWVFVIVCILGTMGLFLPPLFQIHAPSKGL
α4β2* nAChRs, sequence (O70174 31-629): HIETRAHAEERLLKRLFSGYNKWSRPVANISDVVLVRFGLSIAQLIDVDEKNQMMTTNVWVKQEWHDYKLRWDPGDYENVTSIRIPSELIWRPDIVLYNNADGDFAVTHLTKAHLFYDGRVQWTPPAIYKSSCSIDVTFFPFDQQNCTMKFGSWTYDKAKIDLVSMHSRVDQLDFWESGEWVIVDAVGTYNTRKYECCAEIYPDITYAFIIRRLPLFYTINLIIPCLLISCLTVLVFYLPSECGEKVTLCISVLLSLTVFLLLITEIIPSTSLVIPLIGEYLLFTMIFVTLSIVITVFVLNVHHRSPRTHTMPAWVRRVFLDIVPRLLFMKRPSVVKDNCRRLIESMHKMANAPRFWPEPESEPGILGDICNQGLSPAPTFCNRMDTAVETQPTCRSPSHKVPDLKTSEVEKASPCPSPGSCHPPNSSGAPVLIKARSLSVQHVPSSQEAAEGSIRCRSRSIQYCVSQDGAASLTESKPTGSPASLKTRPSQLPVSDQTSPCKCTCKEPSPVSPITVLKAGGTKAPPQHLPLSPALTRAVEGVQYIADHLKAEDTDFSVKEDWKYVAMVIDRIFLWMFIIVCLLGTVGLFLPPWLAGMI
α4β2* nAChRs, sequence (Q9ERK7 26-501): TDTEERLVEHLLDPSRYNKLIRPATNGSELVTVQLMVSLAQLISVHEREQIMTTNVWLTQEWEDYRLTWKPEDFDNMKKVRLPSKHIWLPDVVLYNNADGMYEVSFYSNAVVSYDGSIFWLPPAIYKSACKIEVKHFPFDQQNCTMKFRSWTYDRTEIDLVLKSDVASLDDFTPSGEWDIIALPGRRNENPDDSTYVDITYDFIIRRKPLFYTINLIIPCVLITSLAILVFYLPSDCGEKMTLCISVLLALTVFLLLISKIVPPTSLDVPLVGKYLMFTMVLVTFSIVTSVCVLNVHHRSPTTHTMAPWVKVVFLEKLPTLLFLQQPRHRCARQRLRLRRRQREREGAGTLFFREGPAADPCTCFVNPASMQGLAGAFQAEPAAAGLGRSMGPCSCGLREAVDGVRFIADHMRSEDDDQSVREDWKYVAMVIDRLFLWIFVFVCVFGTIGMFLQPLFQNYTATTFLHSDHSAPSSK
Glutamate,NMDA,Glycine (Stry-insens Site) (Ionot, sequence (P35439 394-863 limits assumed): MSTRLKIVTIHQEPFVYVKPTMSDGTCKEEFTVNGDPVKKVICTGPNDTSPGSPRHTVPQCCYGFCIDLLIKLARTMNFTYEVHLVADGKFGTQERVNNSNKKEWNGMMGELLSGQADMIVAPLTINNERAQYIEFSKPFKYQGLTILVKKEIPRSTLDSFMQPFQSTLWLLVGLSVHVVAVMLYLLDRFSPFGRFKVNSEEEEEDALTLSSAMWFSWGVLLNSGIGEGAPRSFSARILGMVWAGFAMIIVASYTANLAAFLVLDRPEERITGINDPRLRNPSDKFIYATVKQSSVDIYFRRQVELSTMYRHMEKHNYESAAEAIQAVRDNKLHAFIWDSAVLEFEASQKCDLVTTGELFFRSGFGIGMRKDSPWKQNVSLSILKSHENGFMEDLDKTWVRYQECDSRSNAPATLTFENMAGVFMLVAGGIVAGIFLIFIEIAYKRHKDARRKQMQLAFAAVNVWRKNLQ

C1=C(/c2cncnc2)CCCNCC/1 [TC299423, (E)-5-(pyrimidin-5-yl)-1,2,3,4,7,8-hexahydroazocine]
Hit [1]: FALSE | Inhibition ([1]; [3H]LTB4): 29.86% | Hit [2]: FALSE | Inhibition ([2]; [3H]CGS 21680): 1.51% | Hit [3]: FALSE | Inhibition ([3]; [3H]-Naltrindole): -2.12% | Hit [4]: FALSE | Inhibition [4, 35]: -5.00% | Hit [5]: FALSE | Inhibition ([5]; [3H]-YM-09151-2): -2.44% | Hit [6]: FALSE | Inhibition ([6]; [125I]Apamin): -2.57% | inhibition at 1 µM [7]: 14.5% | Hit [8]: FALSE | Hit [9]: FALSE | Inhibition ([9]; [3H]-(+)-Pentazocine): -0.52% | Hit [10]: FALSE | Inhibition ([10]; [3H]TBOB): 6.83% | Hit [11]: FALSE | Inhibition ([11]; [3H]GABA): -2.66% | Hit [12]: FALSE | Inhibition ([12]; [3H]Pyrilamine): 15.56% | Hit [13]: FALSE | Inhibition ([13]; [125I]-Aminopotentidine): 6.50% | Hit [14]: FALSE | Inhibition ([14]; [3H]WIN 35,428): -5.87% | Hit ([15]; 1 µM): FALSE | inhibition at 1 µM ([15]; [3H]-MDL-105,519): 4.34% | Ki ([16]; single component, cortical membranes): 0.00024 ± 4e-05 µM | Difference between Ki ([125I]epibatidine) and EC50 ([3H]dopamine release) ([16]; α4β2 nAChRs): ~500 fold | Hit [17]: FALSE | Inhibition ([17]; [3H]N-a-MeHistamine): 5.85% | Hit [18]: FALSE | Inhibition ([18]; [3H]Strychnine): -7.63% | Hit [19]: FALSE | Inhibition ([19]; [3H]Flunitrazepam): 11.84% | Hit [20]: FALSE | Inhibition ([20]; [3H]-Raclopride): -21.17% | Hit [21]: FALSE | Inhibition ([21]; 3H SQ 29,548): 3.14% | Hit [22]: FALSE | Inhibition ([22]; [3H]AMPA): -1.26% | Hit [23]: FALSE | Inhibition ([23]; [3H]Batrachotoxin A 20-a-Benzo): 6.91% | Hit [24]: FALSE | Inhibition [24, 35]: -1.00% | Hit [25]: FALSE | Inhibition ([25]; [3H]-NBTI): 12.86% | Hit [26]: FALSE | Inhibition ([26]; [3H]Citalopram, N-Methyl): 7.03% | Hit [27]: FALSE | Inhibition ([27]; [125I]-Conotoxin GVIA): -0.60% | EC50 ([28]; read-out: Neurotransmitter release EC50 (converted)): 8 µM | Emax ([28]; relative to nicotine, read-out: Neurotransmitter release % Efficacy): 100 ± 16% | Hit [29]: FALSE | Inhibition ([29]; [125I]-PYY): 2.16% | Hit [30]: FALSE | Inhibition ([30]; [125I]-(Sar1-Ile8) Angiotensin): 24.85% | Hit [31]: FALSE | Inhibition ([31]; [3H]-LSD): 1.24% | Hit [32]: FALSE | Inhibition ([32]; [125]I-Iodo-cyanopindolol): -8.25% | Hit [33]: FALSE | Inhibition ([33]; [3H]LTD4): -8.26% | Half-life compared to varenicline [34]: ~7 fold | half-life [34]: 1.32 h | microsomal CLint ([34]; read-out: Clearance): 18 µL/min/mg
